Drawing on ChEMBL document CHEMBL4020826 (J Med Chem, 2018), this text covers EC50, Ki and IC50 for 17 molecules.

pEC50, pIC50, pKi: −log10 of the molar value.

For assay [1], the target named is T1, Metabotropic glutamate receptor 2 (Homo sapiens, UniProt Q14416). The assay can be described thus: Agonist activity at human mGlu2 receptor expressed in HEK cells assessed as inhibition of forskolin-stimulated cAMP formation after 20 mins by HTRF assay. In kind it is functional, cell-based. On the technique in general: Cyclic AMP is a second messenger, typically raised through Gs and lowered through Gi signalling.

Assay [2] addresses T1, Metabotropic glutamate receptor 2. In words: Displacement of [3H]-LY459477 from recombinant human mGlu2 receptor expressed in HEK cell membranes after 90 mins by liquid scintillation counting. Background: Loss of bound radioactivity is the signal in a displacement assay; it reports binding, not function.
Assay [3] has as its target T2, Metabotropic glutamate receptor 3 (Homo sapiens, UniProt Q14832). In words: biochemical.
Description: Displacement of [3H]-LY459477 from recombinant human mGlu3 receptor expressed in HEK cell membranes after 90 mins by liquid scintillation counting
For assay [4], the target named is T2, Metabotropic glutamate receptor 3.
Description: Agonist activity at human mGlu3 receptor expressed in HEK cells assessed as inhibition of forskolin-stimulated cAMP formation after 20 mins by HTRF assay
Assay [5] deals with T1, Metabotropic glutamate receptor 2. In words: Antagonist activity at human mGlu2 receptor expressed in HEK cells assessed as reversal of DCG-4 inhibited forskolin-stimulated cAMP formation after 20 mins by HTRF assay. Format: functional, cell-based.
Assay [6] deals with T2, Metabotropic glutamate receptor 3. In words: Antagonist activity at human mGlu3 receptor expressed in HEK cells assessed as reversal of DCG-4 inhibited forskolin-stimulated cAMP formation after 20 mins by HTRF assay. Format: functional, cell-based.

T1 sequence (Q14416 whole entry): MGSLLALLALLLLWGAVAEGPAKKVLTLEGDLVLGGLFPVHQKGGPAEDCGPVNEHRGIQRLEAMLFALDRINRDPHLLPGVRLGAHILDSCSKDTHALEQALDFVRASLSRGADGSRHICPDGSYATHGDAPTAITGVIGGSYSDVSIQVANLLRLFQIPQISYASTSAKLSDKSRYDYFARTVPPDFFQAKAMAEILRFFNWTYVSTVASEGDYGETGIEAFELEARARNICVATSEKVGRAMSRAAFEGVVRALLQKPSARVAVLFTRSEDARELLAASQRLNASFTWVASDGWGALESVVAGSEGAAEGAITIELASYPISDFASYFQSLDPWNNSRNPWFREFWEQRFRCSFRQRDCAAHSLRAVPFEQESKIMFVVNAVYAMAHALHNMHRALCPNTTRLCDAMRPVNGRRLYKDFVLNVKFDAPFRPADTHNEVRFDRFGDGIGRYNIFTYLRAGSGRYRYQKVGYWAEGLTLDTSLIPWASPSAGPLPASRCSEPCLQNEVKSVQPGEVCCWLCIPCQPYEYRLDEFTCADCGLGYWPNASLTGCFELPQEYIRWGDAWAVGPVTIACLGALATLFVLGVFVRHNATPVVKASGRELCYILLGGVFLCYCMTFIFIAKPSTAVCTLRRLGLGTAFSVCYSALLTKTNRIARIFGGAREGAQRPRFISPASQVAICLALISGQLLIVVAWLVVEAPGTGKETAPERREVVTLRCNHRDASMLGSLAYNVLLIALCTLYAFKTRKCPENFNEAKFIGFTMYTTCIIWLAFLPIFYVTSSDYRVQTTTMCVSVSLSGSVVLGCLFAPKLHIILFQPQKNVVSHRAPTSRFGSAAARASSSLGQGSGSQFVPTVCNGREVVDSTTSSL
T2 sequence (Q14832 whole entry): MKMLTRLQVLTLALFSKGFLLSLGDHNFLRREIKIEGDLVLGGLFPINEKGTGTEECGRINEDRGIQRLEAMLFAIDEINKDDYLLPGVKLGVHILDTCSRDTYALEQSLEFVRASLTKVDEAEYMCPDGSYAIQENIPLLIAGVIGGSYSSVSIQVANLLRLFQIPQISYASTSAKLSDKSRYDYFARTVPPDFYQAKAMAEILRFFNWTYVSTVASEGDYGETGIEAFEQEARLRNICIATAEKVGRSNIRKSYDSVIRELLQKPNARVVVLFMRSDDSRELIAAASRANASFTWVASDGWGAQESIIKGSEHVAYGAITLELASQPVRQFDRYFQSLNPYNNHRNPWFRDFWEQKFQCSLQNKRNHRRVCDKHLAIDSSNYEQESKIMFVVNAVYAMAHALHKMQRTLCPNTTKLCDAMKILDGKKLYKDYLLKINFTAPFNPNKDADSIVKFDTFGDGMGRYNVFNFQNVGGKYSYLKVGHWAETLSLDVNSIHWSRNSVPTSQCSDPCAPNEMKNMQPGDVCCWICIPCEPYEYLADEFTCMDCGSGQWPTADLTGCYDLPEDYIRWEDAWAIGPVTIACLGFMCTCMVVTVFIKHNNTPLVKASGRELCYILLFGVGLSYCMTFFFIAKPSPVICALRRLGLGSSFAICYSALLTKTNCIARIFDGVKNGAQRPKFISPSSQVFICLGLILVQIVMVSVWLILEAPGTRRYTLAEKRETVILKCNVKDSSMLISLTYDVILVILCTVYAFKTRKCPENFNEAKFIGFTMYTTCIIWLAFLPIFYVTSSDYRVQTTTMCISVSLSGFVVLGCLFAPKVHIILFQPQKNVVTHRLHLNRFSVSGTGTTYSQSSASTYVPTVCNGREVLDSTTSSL

By pEC50 is commonly meant the EC50 on a negative log10 scale, so that one unit is a factor of ten. As a reminder, the pKi is the negative decadic logarithm of the Ki, by convention in mol/L. For the molecule `COc1ccc(C(=O)N[C@H]2C[C@@](N)(C(=O)O)[C@@H]3[C@@H](C(=O)O)[C@@H]32)cc1`, the values for the pEC50 in assay [1] and in assay [4] were 7.80 and 8.61, respectively. Besides, the pKi in assay [2] was 6.73; in assay [3], 8.34.
On the same counts, the results for `N[C@@]1(C(=O)O)C[C@H](NC(=O)c2ccccc2O)[C@H]2[C@H](C(=O)O)[C@H]21` are 8.13, 9.77, 7.24 and 8.75.
For the molecule `N[C@H]1C[C@@](N)(C(=O)O)[C@@H]2[C@@H](C(=O)O)[C@@H]21`, the pKi in assay [2] is 5.36; in assay [3], 6.55.
In the case of `N[C@@]1(C(=O)O)C[C@H](NC(=O)c2cccc(F)c2)[C@H]2[C@H](C(=O)O)[C@H]21`, the pEC50 is 7.74 in assay [1] and 8.70 in assay [4]. In addition, the negative logarithm of the Ki (pKi) is 6.67 in assay [2] and 8.68 in assay [3].
For `COc1ccccc1C(=O)N[C@H]1C[C@@](N)(C(=O)O)[C@@H]2[C@@H](C(=O)O)[C@@H]21`, the pEC50 in assay [1] is 7.58; in assay [4], 8.15. The pKi in assay [2] was 6.82; in assay [3], 7.63.
Regarding `N[C@@]1(C(=O)O)C[C@H](NC(=O)c2cccc(Cl)c2)[C@H]2[C@H](C(=O)O)[C@H]21`, the pEC50 was 8.08 in assay [1] and 9.09 in assay [4]. Also, the pKi is 7.07 in assay [2] and 9.33 in assay [3].
One may read the pIC50 as the negative decadic logarithm of the IC50, by convention in mol/L. As for `N[C@@]1(C(=O)O)C[C@H](NC(=O)CCc2ccccc2)[C@H]2[C@H](C(=O)O)[C@H]21`, the negative logarithm of the EC50 (pEC50) in assay [1] was 6.05; in assay [4], less than 4.60. Moreover, the pIC50 is 5.26 in assay [5] and 5.69 in assay [6]. In addition, the results for the negative logarithm of the Ki (pKi) in assay [2] and in assay [3] were 6.23 and 6.55, respectively.
With `N[C@@]1(C(=O)O)C[C@H](NC(=O)c2cccc(O)c2)[C@H]2[C@H](C(=O)O)[C@H]21`, the negative logarithm of the EC50 (pEC50) in assay [1] was 8.42; in assay [4] it was 9.15. The pKi in assay [2] is 7.50; in assay [3], 8.64.
Regarding `N[C@@]1(C(=O)O)C[C@H](NCc2ccccc2)[C@H]2[C@H](C(=O)O)[C@H]21`, the pEC50 in assay [1] was 6.29; in assay [4] it was 6.45. Moreover, the pKi is 4.95 in assay [2] and 5.97 in assay [3].
On the same counts, the results for `N[C@@]1(C(=O)O)C[C@H](NC(=O)c2ccc(Cl)cc2)[C@H]2[C@H](C(=O)O)[C@H]21` are 8.16, 8.29, 6.86 and 8.64.
Turning to `N[C@@]1(C(=O)O)C[C@H](NC(=O)c2ccc(F)cc2)[C@H]2[C@H](C(=O)O)[C@H]21`, the figures for the pEC50 in assay [1] and in assay [4] were 7.72 and 8.18, respectively. Further, the values for the pKi in assay [2] and in assay [3] were 6.48 and 8.36, respectively.
On to `N[C@@]1(C(=O)O)C[C@H](NC(=O)c2ccc(O)cc2)[C@H]2[C@H](C(=O)O)[C@H]21`, for which the results for the pEC50 in assay [1] and in assay [4] were 8.20 and 8.67, respectively. Also, the pKi in assay [2] was 7.26; in assay [3], 8.03.
For `N[C@@]1(C(=O)O)C[C@H](NC(=O)C2CCCCC2)[C@H]2[C@H](C(=O)O)[C@H]21`, the pEC50 is 5.47 in assay [1] and less than 4.60 in assay [4]. The pIC50 in assay [5] was 4.92; in assay [6], 5.00. The pKi in assay [2] was 5.82; in assay [3] it was 6.12.
As to `N[C@@]1(C(=O)O)C[C@H](NC(=O)c2ccccc2)[C@H]2[C@H](C(=O)O)[C@H]21`, the values for the pEC50 in assay [1] and in assay [4] were 7.70 and 8.30, respectively. The pKi is 6.53 in assay [2] and 8.17 in assay [3].
Take `N[C@@]1(C(=O)O)C[C@H](NC(=O)c2ccccc2Cl)[C@H]2[C@H](C(=O)O)[C@H]21`: the pEC50 in assay [1] was 7.37; in assay [4] it was 8.30. In addition, the pKi in assay [2] is 6.41; in assay [3], 7.56.
For `N[C@@]1(C(=O)O)C[C@H](NC(=O)c2ccccc2F)[C@H]2[C@H](C(=O)O)[C@H]21`, the pEC50 in assay [1] is 7.77; in assay [4], 8.29. The pKi in assay [2] is 6.66; in assay [3] it was 8.24.
Turning to `CC(=O)N[C@H]1C[C@@](N)(C(=O)O)[C@@H]2[C@@H](C(=O)O)[C@@H]21`, the pKi was 6.05 in assay [2] and 6.75 in assay [3].
